How the values were obtained:
[1] = Drug uptake in human HCT-15 cells measured after 30 mins in presence of 2-(4-bromophenyl)-4-(2-(2-(2-fluoroethoxy)ethoxy)ethoxy)quinazoline; format: ADME, cell-based; details: hct-15, 0.5 h
[2] = Drug distribution in KM mouse brain xenografted with human HCT-116 cells measured after 1 hr block group; format: ADME, tissue-based; details: read-out: Drug uptake
[3] = Stability of compound in PBS assessed as compound remaining measure after 1 to 2 hrs; format: physicochemical; details: buffer; time 1-2 hrs
[4] = Drug distribution in KM mouse bone xenografted with human HCT-116 cells measured after 1 hr block group; format: ADME, tissue-based, Bone element; details: read-out: Drug uptake
[5] = Drug distribution in KM mouse kidney xenografted with human HCT-116 cells measured after 1 hr; format: ADME, tissue-based; details: read-out: Drug uptake
[6] = Drug distribution in KM mouse blood xenografted with human HCT-116 cells measured after 1 hr; format: ADME, tissue-based; details: read-out: Drug uptake
[7] = Drug distribution in KM mouse intestine xenografted with human HCT-116 cells measured after 1 hr; format: ADME, tissue-based; details: read-out: Drug uptake
[8] = Lipophilicity, logP of compound; format: physicochemical; details: octanol/water
[9] = Drug accumulation in bone of KM mouse measured after 2 hrs; format: ADME, tissue-based, Bone element; details: read-out: Drug uptake
[10] = Drug accumulation in small intestine of KM mouse measured after 2 hrs; format: ADME, tissue-based; details: read-out: Drug uptake
[11] = Drug distribution in KM mouse stomach xenografted with human HCT-116 cells measured after 1 hr block group; format: ADME, tissue-based; details: read-out: Drug uptake
[12] = Drug distribution in KM mouse spleen xenografted with human HCT-116 cells measured after 1 hr; format: ADME, tissue-based; details: read-out: Drug uptake
[13] = Ratio of drug level in tumor to blood in KM mouse xenografted with human HCT-116 cells measured after 1 hr block group; format: ADME, tissue-based
[14] = Drug distribution in KM mouse pancreas xenografted with human HCT-116 cells measured after 1 hr; format: ADME, tissue-based; details: read-out: Drug uptake
[15] = Drug accumulation in intestine of KM mouse measured after 30 mins; format: ADME, tissue-based; details: read-out: Drug uptake
[16] = Drug distribution in KM mouse spleen xenografted with human HCT-116 cells measured after 1 hr block group; format: ADME, tissue-based; details: read-out: Drug uptake
[17] = Drug uptake in mouse liver measured after 10 mins; format: ADME, tissue-based; details: in vivo
[18] = Ratio of drug level in tumor to muscle in KM mouse xenografted with human HCT-116 cells measured after 1 hr; format: ADME, tissue-based
[19] = Drug distribution in KM mouse blood xenografted with human HCT-116 cells measured after 1 hr block group; format: ADME, tissue-based; details: read-out: Drug uptake
[20] = Drug distribution in KM mouse heart xenografted with human HCT-116 cells measured after 1 hr block group; format: ADME, tissue-based; details: read-out: Drug uptake
[21] = Drug distribution in KM mouse muscle xenografted with human HCT-116 cells measured after 1 hr block group; format: ADME, tissue-based, Muscle tissue; details: read-out: Drug uptake
[22] = Ratio of drug level in tumor to muscle in KM mouse xenografted with human HCT-116 cells measured after 1 hr block group; format: ADME, tissue-based
[23] = Drug accumulation in brain of KM mouse measured after 10 mins; format: ADME, tissue-based; details: read-out: Drug uptake
[24] = Drug distribution in KM mouse liver xenografted with human HCT-116 cells measured after 1 hr; format: ADME, tissue-based; details: read-out: Drug uptake
[25] = Drug distribution in KM mouse intestine xenografted with human HCT-116 cells measured after 1 hrs block group; format: ADME, tissue-based; details: read-out: Drug uptake
[26] = Drug distribution in KM mouse brain xenografted with human HCT-116 cells measured after 1 hr; format: ADME, tissue-based; details: read-out: Drug uptake
[27] = Drug distribution in KM mouse lung xenografted with human HCT-116 cells measured after 1 hr block group; format: ADME, tissue-based; details: read-out: Drug uptake
[28] = Drug uptake in human MCF7 cells measured after 1 hr; format: ADME, cell-based; details: mcf7, 1 h
[29] = Drug accumulation in heart of KM mouse measured after 10 mins; format: ADME, tissue-based; details: in vivo
[30] = Drug uptake in KM mouse gastrointestinal tract xenografted with human HCT-116 cells measured after 40 to 60 mins by PET imaging based analysis; format: ADME, tissue-based; details: time 40-60 min
[31] = Drug distribution in KM mouse tumor xenografted with human HCT-116 cells measured after 1 hr block group; format: ADME, tissue-based, Neoplasm; details: read-out: Drug uptake
[32] = Drug accumulation in blood of KM mouse measured after 2 hrs; format: ADME, tissue-based; details: read-out: Drug uptake
[33] = Drug distribution in KM mouse heart xenografted with human HCT-116 cells measured after 1 hr; format: ADME, tissue-based; details: read-out: Drug uptake
[34] = Drug uptake in human HCT-15 cells measured after 1 hr; format: ADME, cell-based; details: hct-15, 1 h
[35] = Drug distribution in KM mouse kidney xenografted with human HCT-116 cells measured after 1 hr block group; format: ADME, tissue-based; details: read-out: Drug uptake
[36] = Drug distribution in KM mouse liver xenografted with human HCT-116 cells measured after 1 hr block group; format: ADME, tissue-based; details: read-out: Drug uptake
[37] = Drug uptake in human MCF7 cells measured after 30 mins in presence of 2-(4-bromophenyl)-4-(2-(2-(2-fluoroethoxy)ethoxy)ethoxy)quinazoline; format: ADME, cell-based; details: mcf7, 0.5 h
[38] = Drug distribution in KM mouse lung xenografted with human HCT-116 cells measured after 1 hr; format: ADME, tissue-based; details: read-out: Drug uptake
[39] = Drug uptake in KM mouse intestine xenografted with human HCT-116 cells measured after 80 mins by PET imaging based analysis; format: ADME, tissue-based; details: 1.333 h
[40] = Drug uptake in mouse liver measured after 60 min; format: ADME, tissue-based; details: in vivo, 1 h
[41] = Drug uptake in KM mouse liver xenografted with human HCT-116 cells measured after 40 to 60 mins by PET imaging based analysis; format: ADME, tissue-based; details: time 40-60 min
[42] = Drug uptake in human HCT-116 cells measured after 30 mins; format: ADME, cell-based; details: hct-116, 0.5 h
[43] = Retention time of the compound; format: physicochemical
[44] = Drug distribution in KM mouse muscle xenografted with human HCT-116 cells measured after 1 hr; format: ADME, tissue-based, Muscle tissue; details: read-out: Drug uptake
[45] = Stability of compound in mouse plasma assessed as compound remaining measured after 1 to 2 hrs; format: ADME, cell-free; details: time 1-2 hrs
[46] = Drug distribution in KM mouse pancreas xenografted with human HCT-116 cells measured after 1 hr block group; format: ADME, tissue-based; details: read-out: Drug uptake
[47] = Drug distribution in KM mouse bone xenografted with human HCT-116 cells measured after 1 hr; format: ADME, tissue-based, Bone element; details: read-out: Drug uptake
[48] = Drug accumulation in liver of KM mouse measured after 10 mins; format: ADME, tissue-based; details: read-out: Drug uptake
[49] = Drug uptake in human HCT-116 cells at 10 nM measured after 30 min; format: ADME, cell-based; details: hct-116, 0.5 h, 0.01 µM
[50] = Drug distribution in KM mouse stomach xenografted with human HCT-116 cells measured after 1 hr; format: ADME, tissue-based; details: read-out: Drug uptake
[51] = Ratio of drug level in tumor to blood in KM mouse xenografted with human HCT-116 cells measured after 1 hr; format: ADME, tissue-based
[52] = Drug distribution in KM mouse tumor xenografted with HCT-116 cells measured after 1 hr; format: ADME, tissue-based, Neoplasm; details: read-out: Drug uptake

- Drug uptake [1]: 18.35%
- tissue uptake at 1 h [2]: 6.56 %ID/g
- Stability [3]: > 90%
- tissue uptake at 1 h [4]: 2.44 %ID/g
- tissue uptake at 1 h [5]: 8.49 %ID/g
- tissue uptake at 1 h [6]: 4.15 %ID/g
- tissue uptake at 1 h [7]: 8.84 %ID/g
- logP [8]: 3.88
- tissue uptake at 2 h [9]: 5.62 %ID/g
- tissue uptake at 2 h [10]: 8.37 %ID/g
- tissue uptake at 1 h [11]: 1.6 %ID/g
- tissue uptake at 1 h [12]: 6.45 %ID/g
- Kp at 1 h [13]: 1.01
- tissue uptake at 1 h [14]: 8.21 %ID/g
- tissue uptake at 0.5 h [15]: 10.8 %ID/g
- tissue uptake at 1 h [16]: 5.62 %ID/g
- Drug uptake [17]: 83.7%
- Ratio [18]: 0.98
- tissue uptake at 1 h [19]: 3.3 %ID/g
- tissue uptake at 1 h [20]: 5.23 %ID/g
- tissue uptake at 1 h [21]: 4.2 %ID/g
- Ratio [22]: 0.79
- tissue uptake at 10 min [23]: 7.94 %ID/g
- tissue uptake at 1 h [24]: 9.99 %ID/g
- tissue uptake at 1 h [25]: 7.1 %ID/g
- tissue uptake at 1 h [26]: 7.34 %ID/g
- tissue uptake at 1 h [27]: 5.42 %ID/g
- Drug uptake [28]: 25.26%
- Drug uptake [29]: Active
- Drug uptake [30]: Active
- tissue uptake at 1 h [31]: 3.31 %ID/g
- tissue uptake at 2 h [32]: 3.97 %ID/g
- tissue uptake at 1 h [33]: 6.4 %ID/g
- Drug uptake [34]: 25.61%
- tissue uptake at 1 h [35]: 7.65 %ID/g
- tissue uptake at 1 h [36]: 9.5 %ID/g
- Drug uptake [37]: 13.62%
- tissue uptake at 1 h [38]: 5.66 %ID/g
- Drug uptake [39]: Active
- Drug uptake [40]: 37.63%
- Drug uptake [41]: Active
- Drug uptake [42]: 35.27%
- Retention_time [43]: 2.97 min
- tissue uptake at 1 h [44]: 4.92 %ID/g
- Stability [45]: > 90%
- tissue uptake at 1 h [46]: 7.53 %ID/g
- tissue uptake at 1 h [47]: 2.81 %ID/g
- tissue uptake at 10 min [48]: 10.2 %ID/g
- Drug uptake [49]: 23.64%
- tissue uptake at 1 h [50]: 1.75 %ID/g
- Kp at 1 h [51]: 1.16
- tissue uptake at 1 h [52]: 4.76 %ID/g
Structure (SMILES): [18F]CCOCCOCCOc1nc(-c2ccc(Br)cc2)nc2ccccc12
